# In US20210322442A1, “LONG-TERM RE-ABSORBABLE SU[…] WITH CONTROLED PRE-CONCENTRATED PHARMACOLOGICALLY ACTIVE POLYMER SUBSTANCE RELEASE FOR TREATING ENDOMETRIOSIS” (priority 2020, published 2021):
# Tests used:
# [1] = test system: endometriosis; details: cited from earlier work
# [2] = test system: endometriosis; assay: clinical follow-up of about 1,000 patients treated with gestrinone implants; type: in vivo
# Protocol: Research was conducted to assess the effectiveness of using the gestrinone implants described here for the treatment of endometriosis. About 1,000 patients with different degrees of the disease were followed up in clinical practice and the dose used was 1 to 3 implants. […] In these patients, treatment can be used only.
smiles,measurement,setting,value
C#C[C@]1(O)CC[C@H]2[C@@H]3CCC4=CC(=O)CCC4=C3C=C[C@@]21CC [gestrinone],"tolerability, oral dose",[1],up to 5 mg three times a week
same,carrier protein SHBG in the patient,"[2]; mechanism of action, stated with an increase in free circulating testosterone",reduction in the carrier protein SHBG
same,quality of life of patients,"[2]; observed in practice: mood, libido, reasoning and decision making capacity, lean mass",improves the quality of life of patients as a whole
same,free circulating testosterone,[2]; result of SHBG reduction,increase in free circulating testosterone
